Test results: US6492495B1, “PTP-S31: a novel protein tyrosine phosphatase” (Max-Planck-Gesellschaft zur Forderung der Wissenschaften …, priority 1993, dated 2002)
Where two headings read alike, the source gives them in different places.

Key:
[1] = test system: LAR; settings: Raytide substrate, cited from earlier work
[2] = target: T1, GST/PTP-S31 fusion protein (S31D) (Homo sapiens, UniProt Q9UMZ3); assay: PTP assay of GST/PTP-S31D fusion protein on glutathione-Sepharose beads, substrate pNP-P, effect of agents; assay type: biochemical; settings: 25 mM pNP-P
T1 construct: p16 encodes a fusion protein of glutathione-S-transferase and PTP-S31D (starting with the first methionine); made in house; host or cells: E. coli DH5α and SURE
T1 sequence (Q9UMZ3 with tags, fused parts or gaps): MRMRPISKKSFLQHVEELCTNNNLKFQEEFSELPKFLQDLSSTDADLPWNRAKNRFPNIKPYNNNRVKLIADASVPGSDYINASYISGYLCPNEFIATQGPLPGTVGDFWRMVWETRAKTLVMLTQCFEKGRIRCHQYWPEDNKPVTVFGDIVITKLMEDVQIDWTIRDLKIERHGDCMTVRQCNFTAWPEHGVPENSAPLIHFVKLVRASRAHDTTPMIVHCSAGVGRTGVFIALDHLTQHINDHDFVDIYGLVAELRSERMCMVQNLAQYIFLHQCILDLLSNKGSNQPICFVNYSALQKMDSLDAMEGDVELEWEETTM
Procedure: The activity of PTP-S31D towards the substrate p-nitrophenyl phosphate (pNP-P) was measured essentially as described by Tonks et al., J. Biol. Chem. 263:6731-6737 (1988)). Increasing amounts of the glutathione-Sepharose beads with GST/PTP-S31D, GST/PTP-S31C and GST, respectively, from above were incubated with 25 mM pNP-P at room temperature in a reaction mixture containing 50 mM 2-(N-morpholino) ethane sulfonic acid (MES) pH 5.5, 10 mM dithiothreitol, and 5 mM ethylenediamine tetraacetic acid (EDTA). The reaction was stopped by addition of equal volumes of 0.4 M NaOH. After centrifugation, the supernatants were transferred to microtiter plates and the absorbance at 405 nm was read with a Dynatech MR5000 reader.
The activity of the GST/PTP-S31D fusion protein towards pNP-P is measured as described in Section 10, above. The substances to be analyzed for their ability to stimulate or inhibit phosphatase activity are added to the GST/PTP-S31D fusion protein 5 minutes prior to the addition of pNP-P. A similar procedure is used for PTP-S31D expressed in 293 cells, where the PTP-S31D/293 cell lysate is used directly.
The indicated concentrations of the agents are the final concentrations in the reaction mixture after addition of the substrate, pNP-P. The phosphatase assay mixture contained 50 mM 2-(N-Morpholino)ethane sulfonic acid (MES) pH 5.5, 10 mM dithiothreitol, 25 mM pNP-P and 2 μl of the GST/PTP-S31-Sepharose suspension. When testing orthovanadate, poly(Glu/Tyr) 4:1 and poly-L-lysine, 5 mM EDTA was included in the assay mixture. The reaction was carried out at room temperature and stopped after 30 minutes by addition of equal volumes of 0.4M NaOH. After centrifugation, the supernatants were transferred to microtiter plates and the absorbance at 405 nm read with a Dynatech MR5000 plate reader. For comparison, Table I includes published data of the activity of PTPB and LAR using Raytide as a substrate (Itoh et al (J. Biol. Chem. 267: 12356-12363 (1992)).

[3] = target: PTPβ (Homo sapiens, UniProt P23467); settings: Raytide substrate, cited from earlier work
Chain of PTPβ (P23467 1643-1997 limits assumed): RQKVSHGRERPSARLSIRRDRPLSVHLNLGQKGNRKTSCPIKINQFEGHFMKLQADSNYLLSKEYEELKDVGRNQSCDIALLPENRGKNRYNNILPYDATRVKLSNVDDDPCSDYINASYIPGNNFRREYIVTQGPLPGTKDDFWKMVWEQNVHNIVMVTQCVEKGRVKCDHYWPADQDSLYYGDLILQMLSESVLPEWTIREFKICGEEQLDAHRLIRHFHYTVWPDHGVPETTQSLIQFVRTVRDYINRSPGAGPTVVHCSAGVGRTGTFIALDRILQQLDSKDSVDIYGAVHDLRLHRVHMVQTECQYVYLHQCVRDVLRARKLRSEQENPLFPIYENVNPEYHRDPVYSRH

[4] = test system: skeletal muscle or adipocytes; settings: whole cells such as skeletal muscle or adipocytes; cited from earlier work
[5] = agent 1 μg/ml final, MES pH 5.5, 5 mM EDTA, 30 min room temperature
[6] = agent 10 μg/ml final, MES pH 5.5, 5 mM EDTA, 30 min room temperature
[7] = agent 100 μg/ml final, MES pH 5.5, 5 mM EDTA, 30 min room temperature
[8] = agent 1 mM final, MES pH 5.5, 30 min room temperature
[9] = agent 10 mM final, MES pH 5.5, 30 min room temperature
[10] = agent 0.1 mM final, MES pH 5.5, 30 min room temperature

## poly-L-lysine
[1]; agent 1 μg/ml
  PTP Activity (% of control) LAR: 123 % of control
[1]; agent 10 μg/ml
  PTP Activity (% of control) LAR: 230 % of control
[1]; agent 100 μg/ml
  PTP Activity (% of control) LAR: 247 % of control
[2]; [5]
  PTP Activity (% of control) S31D: 156 % of control
[2]; [6]
  PTP Activity (% of control) S31D: 172 % of control
[2]; [7]
  PTP Activity (% of control) S31D: 192 % of control
[3]; agent 1 μg/ml
  PTP Activity (% of control) PTPβ: 239 % of control
[3]; agent 10 μg/ml
  PTP Activity (% of control) PTPβ: 653 % of control
[3]; agent 100 μg/ml
  PTP Activity (% of control) PTPβ: 125 % of control

## [Cl][Mn][Cl] [MnCl2]
[1]; agent 1 mM
  PTP Activity (% of control) LAR: 72 % of control
[1]; agent 10 mM
  PTP Activity (% of control) LAR: 30 % of control
[2]; [8]
  PTP Activity (% of control) S31D: 110 % of control
[2]; [9]
  PTP Activity (% of control) S31D: 140 % of control
[3]; agent 1 mM
  PTP Activity (% of control) PTPβ: 85 % of control
[3]; agent 10 mM
  PTP Activity (% of control) PTPβ: 64 % of control

## [Cl-].[Cl-].[Zn+2] [ZnCl2]
[1]; agent 0.1 mM
  PTP Activity (% of control) LAR: 90 % of control
[1]; agent 1 mM
  PTP Activity (% of control) LAR: 120 % of control
[1]; agent 10 mM
  PTP Activity (% of control) LAR: 6 % of control
[2]; [10]
  PTP Activity (% of control) S31D: 68 % of control
[2]; [8]
  PTP Activity (% of control) S31D: 13 % of control
[2]; [9]
  PTP Activity (% of control) S31D: 9 % of control
[3]; agent 0.1 mM
  PTP Activity (% of control) PTPβ: 18 % of control
[3]; agent 1 mM
  PTP Activity (% of control) PTPβ: 3 % of control
[3]; agent 10 mM
  PTP Activity (% of control) PTPβ: 0 % of control

## poly(Glu/Tyr) 4:1 [Poly (Glu/Tyr)]
[1]; agent 1 μg/ml
  PTP Activity (% of control) LAR: 103 % of control
[1]; agent 10 μg/ml
  PTP Activity (% of control) LAR: 97 % of control
[1]; agent 100 μg/ml
  PTP Activity (% of control) LAR: 96 % of control
[2]; [5]
  PTP Activity (% of control) S31D: 84 % of control
[2]; [6]
  PTP Activity (% of control) S31D: 85 % of control
[2]; [7]
  PTP Activity (% of control) S31D: 77 % of control
[3]; agent 1 μg/ml
  PTP Activity (% of control) PTPβ: 97 % of control
[3]; agent 10 μg/ml
  PTP Activity (% of control) PTPβ: 85 % of control
[3]; agent 100 μg/ml
  PTP Activity (% of control) PTPβ: 61 % of control

## pervanadate
[4]
  insulin response of whole cells: almost full insulin response

## [Cl-].[Cl-].[Mg+2] [MgCl2]
[1]; agent 1 mM
  PTP Activity (% of control) LAR: 119 % of control
[1]; agent 10 mM
  PTP Activity (% of control) LAR: 56 % of control
[2]; [8]
  PTP Activity (% of control) S31D: 123 % of control
[2]; [9]
  PTP Activity (% of control) S31D: 140 % of control
[3]; agent 1 mM
  PTP Activity (% of control) PTPβ: 90 % of control
[3]; agent 10 mM
  PTP Activity (% of control) PTPβ: 141 % of control

## [O]=[V]([O-])([O-])[O-] [Orthovanadate, orthovanadate]
[1]; agent 0.1 mM
  PTP Activity (% of control) LAR: 59 % of control
[1]; agent 1 mM
  PTP Activity (% of control) LAR: 25 % of control
[2]; [10]
  PTP Activity (% of control) S31D: 64 % of control
[2]; [8]
  PTP Activity (% of control) S31D: 23 % of control
[3]; agent 0.1 mM
  PTP Activity (% of control) PTPβ: 33 % of control
[3]; agent 1 mM
  PTP Activity (% of control) PTPβ: 6 % of control
